One assay addresses T1, human GLP1 receptor (Homo sapiens, UniProt P43220).
T1 construct: expressed in transfected cells; host or cells: HEK cells, BacMam virus transduction
Put plainly: cAMP accumulation assay (HTRF), functional agonism of human GLP1 receptor in HEK cells. The assay is classed as cell-based. Conditions: for EC50: read-out: Human GLP-1R agonist cAMP pEC50 (converted). In general terms: cAMP levels reflect the balance of adenylyl cyclase and phosphodiesterase activity.

The target of the next assay is T2, human GLP2 receptor (Homo sapiens, UniProt O95838).
T2 sequence (O95838 1-553): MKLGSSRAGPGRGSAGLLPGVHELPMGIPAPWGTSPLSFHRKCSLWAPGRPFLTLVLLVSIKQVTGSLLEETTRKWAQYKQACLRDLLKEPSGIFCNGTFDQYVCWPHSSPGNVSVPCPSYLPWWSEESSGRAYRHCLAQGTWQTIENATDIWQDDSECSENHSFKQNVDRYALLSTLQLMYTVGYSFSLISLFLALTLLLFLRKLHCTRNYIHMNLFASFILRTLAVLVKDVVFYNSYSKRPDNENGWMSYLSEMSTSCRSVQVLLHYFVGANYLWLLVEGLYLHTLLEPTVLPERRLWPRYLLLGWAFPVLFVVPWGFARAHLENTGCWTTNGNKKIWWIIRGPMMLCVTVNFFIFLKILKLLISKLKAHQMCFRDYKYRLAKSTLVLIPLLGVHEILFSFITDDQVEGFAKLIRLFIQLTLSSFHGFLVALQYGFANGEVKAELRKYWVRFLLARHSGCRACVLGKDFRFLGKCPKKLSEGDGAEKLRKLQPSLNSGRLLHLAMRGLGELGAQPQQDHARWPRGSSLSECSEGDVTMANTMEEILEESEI
Put plainly: cAMP accumulation assay (HTRF), functional agonism of human GLP2 receptor in HEK cells.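 On all read-outs here: HEK cells transduced via BacMam to express human GLP2 receptor, agonist-stimulated cAMP measured by HTRF after 45 min at 37 °C in HBSS with 0.5 mM IBMX.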 Conditions: for Emax: HEK293, read-out: Human GLP-2R agonist cAMP Emax.

The mark [1] stands for this setting: HEK293, read-out: Human GLP-1R agonist cAMP Emax.
The mark [2] stands for this setting: HEK293, HEK cells, human GLP1 receptor BacMam, 45 min 37° C., read-out: Human GLP-1R agonist cAMP Emax.
Where [3] appears, read: HEK cells, human GLP1 receptor BacMam, 45 min 37° C.

pEC50: −log10 of the molar value. Where two headings read alike, the source gives them in different places. Starred links: 1 amine or outer side, 2 acyl side, 3 side chain; linkers in the order of their positions; H or OH if unused. Non-standard residues stand in square brackets, D forms with d. Residues, ends and D or L forms follow the SMILES beside them. Groups on a side chain read outwards from the residue. *: point of attachment. Malonyl(2,2-Me2,histaminyl) = CC(C)(C(=O)NCCc1cnc[nH]1)C(=O)*; Ala(1H-tetrazol-5-yl) = N[C@@H](Cc1nnn[nH]1)C(=O)O; C18 diacid = O=C(O)CCCCCCCCCCCCCCCCC(=O)*; γGlu = O=C(O)[C@H](CCC(=O)[*:2])N[*:1]; αMeF = C[C@](N)(Cc1ccccc1)C(=O)O; Lauroyl = CCCCCCCCCCCC(=O)*; Nle = CCCC[C@H](N)C(=O)O; AEEA = NCCOCCOCC(=O)O; Aib = CC(C)(N)C(=O)O; Alloc = C=CCOC(=O)*; βAla = NCCC(=O)O

T1 sequence (P43220 24-463): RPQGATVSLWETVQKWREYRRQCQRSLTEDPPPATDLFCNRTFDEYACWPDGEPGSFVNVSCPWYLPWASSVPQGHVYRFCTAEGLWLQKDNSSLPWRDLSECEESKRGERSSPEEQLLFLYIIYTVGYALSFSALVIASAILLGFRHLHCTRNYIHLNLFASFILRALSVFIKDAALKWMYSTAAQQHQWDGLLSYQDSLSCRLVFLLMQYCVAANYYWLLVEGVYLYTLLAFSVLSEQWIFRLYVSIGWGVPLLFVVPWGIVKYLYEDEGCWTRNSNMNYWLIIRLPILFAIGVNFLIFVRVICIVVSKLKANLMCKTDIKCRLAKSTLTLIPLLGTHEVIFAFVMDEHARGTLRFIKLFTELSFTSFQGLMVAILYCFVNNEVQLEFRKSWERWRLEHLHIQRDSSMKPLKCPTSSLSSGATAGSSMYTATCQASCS
Description for human GLP1 receptor: (§1) The functional activity of the peptides were assessed using a HTRF cAMP assay. pEC50 values are quoted.
(§2) cAMP production upon agonist stimulation of human GLP2 or GLP1 receptor was assessed utilizing HiRange cAMP kit (Cisbio). In brief, HEK cells were infected with either human GLP2 or GLP1 receptor BacMam virus for 24 hours and frozen for later use in the assay. […] Cells were prepared in the assay buffer (HBSS (Lonza) supplemented with 0.5 mM IBMX (Tocris)). After 45 min incubation at 37° C., the reaction was stopped by addition of the HTRF detection reagents in the lysis buffer provided in the kit.
Description for human GLP2 receptor: as §1, §2

Turning to `C=CCOC(=O)NCCCC[C@H](NC(=O)[C@H](CC(C)C)NC(=O)[C@H](CC(=O)O)NC(=O)[C@H](CC(C)C)NC(=O)C(C)(C)NC(=O)[C@@H](NC(=O)[C@@H](Cc1ccccc1)NC(=O)[C@H](CCCC)NC(=O)[C@H](CCC(=O)O)NC(=O)[C@H](CC(=O)O)NC(=O)[C@H](CO)NC(=O)[C@H](Cc1ccccc1)NC(=O)[C@H](CO)NC(=O)CNC(=O)[C@H](Cc1nn[nH]n1)NC(=O)C(C)(C)C(=O)NCCc1c[nH]cn1)[C@@H](C)O)C(=O)N[C@@H](C)C(=O)N[C@@H](C)C(=O)NC(C)(C)C(=O)N[C@@H](CC(=O)O)C(=O)N[C@@H](Cc1ccccc1)C(=O)N[C@H](C(=O)N[C@@H](CC(N)=O)C(=O)N[C@@H](Cc1c[nH]c2ccccc12)C(=O)N[C@@H](CC(C)C)C(=O)N[C@H](C(=O)N[C@@H](CCC(N)=O)C(=O)N[C@H](C(=O)N[C@@H](CCCCN)C(=O)N[C@H](C(=O)N[C@H](C(=O)N[C@@H](Cc1ccccc1)C(N)=O)[C@@H](C)O)[C@@H](C)CC)[C@@H](C)O)[C@@H](C)CC)[C@@H](C)CC` [Example 5] ({Malonyl(2,2-Me2,histaminyl)}-[Ala(1H-tetrazol-5-yl)]GSFSDE[Nle][dF]T[Aib]LDLK(Alloc)AA[Aib]DFINWLIQTKITF-NH2), the Emax came to 93.6% on human GLP1 receptor (setting [1]) and 103% at human GLP2 receptor.

As to `C=CCOC(=O)NCCCC[C@H](NC(=O)[C@H](CC(C)C)NC(=O)[C@H](CC(=O)O)NC(=O)[C@H](CC(C)C)NC(=O)[C@@H](NC(=O)[C@@H](NC(=O)[C@@H](Cc1ccccc1)NC(=O)[C@H](CCCC)NC(=O)[C@H](CCC(=O)O)NC(=O)[C@H](CC(=O)O)NC(=O)[C@H](CO)NC(=O)[C@](C)(Cc1ccccc1)NC(=O)[C@H](CO)NC(=O)[C@@H](C)NC(=O)[C@H](Cc1nn[nH]n1)NC(=O)C(C)(C)C(=O)NCCc1c[nH]cn1)[C@@H](C)O)[C@@H](C)CC)C(=O)NC(C)(C)C(=O)N[C@@H](C)C(=O)N[C@@H](CCCCN)C(=O)N[C@@H](CC(=O)O)C(=O)N[C@@H](Cc1ccccc1)C(=O)N[C@H](C(=O)N[C@@H](CC(N)=O)C(=O)N[C@@H](Cc1c[nH]c2ccccc12)C(=O)N[C@@H](CC(C)C)C(=O)N[C@H](C(=O)N[C@@H](CCC(N)=O)C(=O)N[C@H](C(=O)N[C@@H](CCCCN)C(=O)N[C@H](C(=O)N[C@H](C(=O)N[C@@H](CC(=O)O)C(N)=O)[C@@H](C)O)[C@@H](C)CC)[C@@H](C)O)[C@@H](C)CC)[C@@H](C)CC` [Example 11] ({Malonyl(2,2-Me2,histaminyl)}-[Ala(1H-tetrazol-5-yl)][dA]S[αMeF]SDE[Nle][dF]TILDLK(Alloc)[Aib]AKDFINWLIQTKITD-NH2), the Emax at human GLP1 receptor (setting [2]) is 95.4%. Also, on human GLP1 receptor (setting [3]), the EC50 is 1.58 nM. On human GLP2 receptor, the negative logarithm of the EC50 (pEC50) is 10.90 and the maximal response (Emax) amounted to 102%.

On to `CCCCCCCCCCCC(=O)NCCC(=O)NCCCC[C@H](NC(=O)[C@H](CC(N)=O)NC(=O)[C@H](CC(=O)O)NC(=O)[C@H](CC(C)C)NC(=O)[C@@H](NC(=O)[C@@H](NC(=O)[C@@H](Cc1ccccc1)NC(=O)[C@H](CCCC)NC(=O)[C@H](CCC(=O)O)NC(=O)[C@H](CC(=O)O)NC(=O)[C@H](CO)NC(=O)[C@H](Cc1ccccc1)NC(=O)[C@H](CO)NC(=O)[C@@H](C)NC(=O)[C@H](Cc1nn[nH]n1)NC(=O)C(C)(C)C(=O)NCCc1c[nH]cn1)[C@@H](C)O)[C@@H](C)CC)C(=O)NC(C)(C)C(=O)N[C@@H](C)C(=O)N[C@@H](CCCCN)C(=O)N[C@@H](CC(=O)O)C(=O)N[C@@H](Cc1ccccc1)C(=O)N[C@H](C(=O)N[C@@H](CC(N)=O)C(=O)N[C@@H](Cc1c[nH]c2ccccc12)C(=O)N[C@@H](CC(C)C)C(=O)N[C@H](C(=O)N[C@@H](CCC(N)=O)C(=O)N[C@H](C(=O)N[C@@H](CCCCN)C(=O)N[C@H](C(=O)N[C@H](C(=O)N[C@@H](Cc1ccccc1)C(N)=O)[C@@H](C)O)[C@@H](C)CC)[C@@H](C)O)[C@@H](C)CC)[C@@H](C)CC` [Example 21] ({Malonyl(2,2-Me2,histaminyl)}-[Ala(1H-tetrazol-5-yl)][dA]SFSDE[Nle][dF]TILDNK([βAla-Lauroyl])[Aib]AKDFINWLIQTKITF-NH2; C-terminus assumed), for which the maximum response (Emax) was found to be 91.5% on human GLP1 receptor (setting [1]) and 99.7% at human GLP2 receptor.

For the compound `CCCC[C@H](NC(=O)[C@H](CCC(=O)O)NC(=O)[C@H](CC(=O)O)NC(=O)[C@H](CO)NC(=O)[C@H](Cc1ccccc1)NC(=O)[C@H](CO)NC(=O)CNC(=O)[C@H](Cc1nn[nH]n1)NC(=O)C(C)(C)C(=O)NCCc1c[nH]cn1)C(=O)N[C@H](Cc1ccccc1)C(=O)N[C@H](C(=O)N[C@H](C(=O)N[C@@H](CC(C)C)C(=O)N[C@@H](CC(=O)O)C(=O)N[C@@H](CC(C)C)C(=O)N[C@@H](CCCCNC(=O)CC[C@H](NC(=O)COCCOCCNC(=O)COCCOCCNC(=O)CCCCCCCCCCCCCCCCC(=O)O)C(=O)O)C(=O)N[C@@H](C)C(=O)N[C@@H](C)C(=O)N[C@@H](CCCCN)C(=O)N[C@@H](CC(=O)O)C(=O)N[C@@H](Cc1ccccc1)C(=O)N[C@H](C(=O)N[C@@H](CC(N)=O)C(=O)N[C@@H](Cc1c[nH]c2ccccc12)C(=O)N[C@@H](CC(C)C)C(=O)N[C@H](C(=O)N[C@@H](CCC(N)=O)C(=O)N[C@H](C(=O)N[C@@H](CCCCN)C(=O)N[C@H](C(=O)N[C@H](C(=O)N[C@@H](Cc1ccccc1)C(N)=O)[C@@H](C)O)[C@@H](C)CC)[C@@H](C)O)[C@@H](C)CC)[C@@H](C)CC)[C@@H](C)CC)[C@@H](C)O` [Example 23] ({Malonyl(2,2-Me2,histaminyl)}-[Ala(1H-tetrazol-5-yl)]GSFSDE[Nle][dF]TILDLK([γGlu-AEEA-AEEA-C18 diacid])AAKDFINWLIQTKITF-NH2), the Emax at human GLP1 receptor (setting [2]) came to 89.8%. Further, the EC50 at human GLP1 receptor (setting [3]) is 12.6 nM. At human GLP2 receptor, the negative-log EC50 (pEC50) was 10.50 and the Emax was 103%.

For the compound Exendin-4 [reference compound], the “Human GLP-1R agonist cAMP Emax” value on human GLP1 receptor was determined as 99.7. Further, on human GLP2 receptor (HEK cells, human GLP2 receptor BacMam, 45 min 37° C.), the “Human GLP-2R agonist cAMP Emax” value is 1.6.

As to `C=CCOC(=O)NCCCC[C@H](NC(=O)[C@H](C)NC(=O)C(C)(C)NC(=O)[C@H](CCCCNC(=O)OCC=C)NC(=O)[C@H](CC(N)=O)NC(=O)[C@H](CC(=O)O)NC(=O)[C@H](CC(C)C)NC(=O)C(C)(C)NC(=O)[C@@H](NC(=O)[C@H](CC(N)=O)NC(=O)[C@H](CCCC)NC(=O)[C@H](CCC(=O)O)NC(=O)[C@H](CC(=O)O)NC(=O)[C@H](CO)NC(=O)[C@H](Cc1ccccc1)NC(=O)[C@H](CO)NC(=O)[C@@H](C)NC(=O)[C@H](Cc1nn[nH]n1)NC(=O)C(C)(C)C(=O)NCCc1c[nH]cn1)[C@@H](C)O)C(=O)N[C@@H](CC(=O)O)C(=O)N[C@@H](Cc1ccccc1)C(=O)N[C@H](C(=O)N[C@@H](CC(N)=O)C(=O)N[C@@H](Cc1c[nH]c2ccccc12)C(=O)N[C@@H](CC(C)C)C(=O)N[C@H](C(=O)N[C@@H](CCC(N)=O)C(=O)N[C@H](C(=O)N[C@@H](CCCNC(=N)N)C(=O)N[C@H](C(=O)N[C@H](C(=O)N[C@@H](Cc1ccccc1)C(N)=O)[C@@H](C)O)[C@@H](C)CC)[C@@H](C)O)[C@@H](C)CC)[C@@H](C)CC` [Example 8] ({Malonyl(2,2-Me2,histaminyl)}-[Ala(1H-tetrazol-5-yl)][dA]SFSDE[Nle]NT[Aib]LDNK(Alloc)[Aib]AK(Alloc)DFINWLIQTRITF-NH2), the Emax at human GLP1 receptor (setting [1]) amounted to 93.3%; at human GLP2 receptor, 104%.

Usually Emax stands for the size of the effect at its maximum, as opposed to the concentration needed. As a reminder, the pEC50 is the EC50 on a negative log10 scale, so that one unit is a factor of ten. Low values mean a high EC50, high ones a low EC50.

Source of the values: patent US20230295260A1, “GLP RECEPTOR AGONISTS” (HEPTARES THERAPEUTICS LIMITED, priority 2020, published 2023).
